From patent US10717716B2, “1,3,4-oxadiazole derivative compounds as histone deacetylase 6 inhibitor, and the pharmaceutical composition comprising the same” (Chong Kun Dang Pharmaceutical Corp., priority 2015, dated 2020)

Biological target: T1, human recombinant HDAC6 (Homo sapiens, UniProt Q9UBN7)
T1 construct: purchased Calbiochem 382180
T1 sequence (Q9UBN7 1-1215): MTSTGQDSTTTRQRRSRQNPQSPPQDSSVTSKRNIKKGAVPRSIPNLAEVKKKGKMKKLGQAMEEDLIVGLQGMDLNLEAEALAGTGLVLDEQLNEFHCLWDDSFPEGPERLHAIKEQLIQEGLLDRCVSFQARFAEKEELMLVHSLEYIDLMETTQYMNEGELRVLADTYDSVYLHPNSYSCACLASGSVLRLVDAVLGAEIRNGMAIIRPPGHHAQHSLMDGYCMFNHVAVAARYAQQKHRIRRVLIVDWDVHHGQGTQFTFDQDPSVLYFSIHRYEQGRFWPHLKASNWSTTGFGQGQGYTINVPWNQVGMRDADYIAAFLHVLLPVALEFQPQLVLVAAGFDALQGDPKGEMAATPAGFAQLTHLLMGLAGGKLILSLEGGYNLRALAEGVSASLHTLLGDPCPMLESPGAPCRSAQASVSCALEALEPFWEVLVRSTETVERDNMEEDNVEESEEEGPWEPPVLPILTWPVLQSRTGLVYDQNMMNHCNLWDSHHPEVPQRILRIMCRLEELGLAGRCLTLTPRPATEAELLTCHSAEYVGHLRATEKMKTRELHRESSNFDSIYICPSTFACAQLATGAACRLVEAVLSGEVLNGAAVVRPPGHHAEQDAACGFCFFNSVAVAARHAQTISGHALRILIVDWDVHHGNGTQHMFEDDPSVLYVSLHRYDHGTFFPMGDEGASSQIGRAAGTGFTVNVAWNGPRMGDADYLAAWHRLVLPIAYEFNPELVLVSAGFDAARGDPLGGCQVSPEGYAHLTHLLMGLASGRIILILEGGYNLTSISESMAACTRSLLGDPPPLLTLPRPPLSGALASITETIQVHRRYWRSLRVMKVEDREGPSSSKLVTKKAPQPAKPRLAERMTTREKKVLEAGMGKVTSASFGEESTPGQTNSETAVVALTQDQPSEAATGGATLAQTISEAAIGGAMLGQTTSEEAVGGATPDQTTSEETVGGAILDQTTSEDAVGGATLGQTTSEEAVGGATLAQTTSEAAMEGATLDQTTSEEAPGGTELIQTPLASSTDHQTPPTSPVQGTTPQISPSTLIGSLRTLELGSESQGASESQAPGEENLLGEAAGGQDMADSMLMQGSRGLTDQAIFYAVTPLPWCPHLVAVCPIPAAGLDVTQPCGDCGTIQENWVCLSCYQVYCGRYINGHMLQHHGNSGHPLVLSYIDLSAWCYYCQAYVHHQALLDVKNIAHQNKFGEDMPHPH
Assay: HDAC6 enzyme activity inhibition assay (HDAC Fluorimetric Drug Discovery Kit)
Format: biochemical
Conditions: for HDAC6 selectivity (fold): HDAC6 over HDAC1; for IC50: human recombinant HDAC6, same protocol as HDAC1, read-out: HDAC6
Method in brief: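 Fluorimetric deacetylase assay: 5-fold serial compound dilutions, 0.3 μg recombinant human enzyme (HDAC1 or HDAC6, same protocol), 10 μM Fluor de Lys-SIRT1 substrate, 60 min at 30 °C. Signal developed 30 min, measured at 360/460 nm; IC50 values derived.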

HDAC6 selectivity (fold) | IC50 [nM] | Structure (SMILES)
1 |  | CC(C)(C)c1ccc(N(Cc2ccc(-c3nnc(C(F)(F)F)o3)cc2)C(=O)N2CCS(=O)(=O)CC2)cc1 [Compound 21458, N-(4-(tert-butyl)phenyl)-N-(4-(5-(trifluoromethyl)-1,3,4-oxadiazol-2-yl)benzyl)thiomorpholine-4-carboxamide 1,1-dioxide]
1 |  | CC(C)(C)c1ccc(N(Cc2ccc(-c3nnc(C(F)F)o3)cc2)C(=O)N2CCS(=O)(=O)CC2)cc1 [Compound 21459, N-(4-(tert-butyl)phenyl)-N-(4-(5-(difluoromethyl)-1,3,4-oxadiazol-2-yl)benzyl)thiomorpholine-4-carboxamide 1,1-dioxide]
1 |  | CC(C)(C)c1ccc(N(Cc2ccc(-c3nnc(C(F)(F)F)o3)cc2F)C(=O)N2CCS(=O)(=O)CC2)cc1 [Compound 21460, N-(4-(tert-butyl)phenyl)-N-(2-fluoro-4-(5-(trifluoromethyl)-1,3,4-oxadiazol-2-yl)benzyl)thiomorpholine-4-carboxamide 1,1-dioxide]
14 | 731 | CC(C)(C)c1ccc(N(Cc2ccc(-c3nnc(C(F)F)o3)cc2F)C(=O)N2CCS(=O)(=O)CC2)cc1 [Compound 21461, N-(4-(tert-butyl)phenyl)-N-(4-(5-(difluoromethyl)-1,3,4-oxadiazol-2-yl)-2-fluorobenzyl)thiomorpholine-4-carboxamide 1,1-dioxide]
7 | 1420 | O=C(N1CCOCC1)N(Cc1ccccc1)Cc1ccc(-c2nnc(C(F)(F)F)o2)cc1 [Compound 21462, N-benzyl-N-(4-(5-(trifluoromethyl)-1,3,4-oxadiazol-2-yl)benzyl)morpholine-4-carboxamide]
2 | 4530 | O=C(N1CCOCC1)N(Cc1ccc(-c2nnc(C(F)(F)F)o2)cc1)Cc1cccnc1 [Compound 21463, N-(pyridin-3-ylmethyl)-N-(4-(5-(trifluoromethyl)-1,3,4-oxadiazol-2-yl)benzyl)morpholine-4-carboxamide]
6 | 1730 | O=C(N1CCOCC1)N(Cc1ccncc1)Cc1ccc(-c2nnc(C(F)(F)F)o2)cc1 [Compound 21464, N-(pyridin-4-ylmethyl)-N-(4-(5-(trifluoromethyl)-1,3,4-oxadiazol-2-yl)benzyl)morpholine-4-carboxamide]
333 | 30 | CN1CCN(C(=O)N(Cc2ccc(-c3nnc(C(F)F)o3)cc2F)c2cccc(Br)c2)CC1 [Compound 21465, N-(3-bromophenyl)-N-(4-(5-(difluoromethyl)-1,3,4-oxadiazol-2-yl)-2-fluorobenzyl)-4-methylpiperazine-1-carboxamide]
128 | 78 | CN1CCN(C(=O)N(Cc2ccc(-c3nnc(C(F)F)o3)cc2F)c2ccc(Br)cc2)CC1 [Compound 21466, N-(4-bromophenyl)-N-(4-(5-(difluoromethyl)-1,3,4-oxadiazol-2-yl)-2-fluorobenzyl)-4-methylpiperazine-1-carboxamide]
323 | 31 | CN1CCN(C(=O)N(Cc2ccc(-c3nnc(C(F)F)o3)cc2F)c2cccc(Cl)c2)CC1 [Compound 21467, N-(3-chlorophenyl)-N-(4-(5-(difluoromethyl)-1,3,4-oxadiazol-2-yl)-2-fluorobenzyl)-4-methylpiperazine-1-carboxamide]
159 | 63 | CN1CCN(C(=O)N(Cc2ccc(-c3nnc(C(F)F)o3)cc2F)c2ccc(Cl)cc2)CC1 [Compound 21468, N-(4-chlorophenyl)-N-(4-(5-(difluoromethyl)-1,3,4-oxadiazol-2-yl)-2-fluorobenzyl)-4-methylpiperazine-1-carboxamide]
244 | 41 | Cc1ccccc1N(Cc1ccc(-c2nnc(C(F)F)o2)cc1F)C(=O)N1CCN(C)CC1 [Compound 21469, N-(4-(5-(difluoromethyl)-1,3,4-oxadiazol-2-yl)-2-fluorobenzyl)-4-methyl-N-(o-tolyl)piperazine-1-carboxamide]
313 | 32 | Cc1cccc(N(Cc2ccc(-c3nnc(C(F)F)o3)cc2F)C(=O)N2CCN(C)CC2)c1 [Compound 21470, N-(4-(5-(difluoromethyl)-1,3,4-oxadiazol-2-yl)-2-fluorobenzyl)-4-methyl-N-(m-tolyl)piperazine-1-carboxamide]
213 | 47 | Cc1ccc(N(Cc2ccc(-c3nnc(C(F)F)o3)cc2F)C(=O)N2CCN(C)CC2)cc1 [Compound 21471, N-(4-(5-(difluoromethyl)-1,3,4-oxadiazol-2-yl)-2-fluorobenzyl)-4-methyl-N-(p-tolyl)piperazine-1-carboxamide]
217 | 46 | COc1ccccc1N(Cc1ccc(-c2nnc(C(F)F)o2)cc1F)C(=O)N1CCN(C)CC1 [Compound 21472, N-(4-(5-(difluoromethyl)-1,3,4-oxadiazol-2-yl)-2-fluorobenzyl)-N-(2-methoxyphenyl)-4-methylpiperazine-1-carboxamide]
313 | 32 | COc1cccc(N(Cc2ccc(-c3nnc(C(F)F)o3)cc2F)C(=O)N2CCN(C)CC2)c1 [Compound 21473, N-(4-(5-(difluoromethyl)-1,3,4-oxadiazol-2-yl)-2-fluorobenzyl)-N-(3-methoxyphenyl)-4-methylpiperazine-1-carboxamide]
77 | 130 | COc1ccccc1N(Cc1ccc(-c2nnc(C(F)F)o2)cc1)C(=O)N1CCS(=O)(=O)CC1 [Compound 21474, N-(4-(5-(difluoromethyl)-1,3,4-oxadiazol-2-yl)benzyl)-N-(2-methoxyphenyl)thiomorpholine-4-carboxamide 1,1-dioxide]
145 | 69 | COc1cccc(N(Cc2ccc(-c3nnc(C(F)F)o3)cc2)C(=O)N2CCS(=O)(=O)CC2)c1 [Compound 21475, N-(4-(5-(difluoromethyl)-1,3,4-oxadiazol-2-yl)benzyl)-N-(3-methoxyphenyl)thiomorpholine-4-carboxamide 1,1-dioxide]
196 | 51 | Cc1cccc(N(Cc2ccc(-c3nnc(C(F)F)o3)cc2)C(=O)N2CCS(=O)(=O)CC2)c1 [Compound 21476, N-(4-(5-(difluoromethyl)-1,3,4-oxadiazol-2-yl)benzyl)-N-(m-tolyl)thiomorpholine-4-carboxamide 1,1-dioxide]
137 | 73 | COc1ccc(N(Cc2ccc(-c3nnc(C(F)(F)F)o3)cc2F)C(=O)N2CCS(=O)(=O)CC2)cc1 [Compound 21477, N-(2-fluoro-4-(5-(trifluoromethyl)-1,3,4-oxadiazol-2-yl)benzyl)-N-(4-methoxyphenyl)thiomorpholine-4-carboxamide 1,1-dioxide]
270 | 37 | COc1ccc(N(Cc2ccc(-c3nnc(C(F)F)o3)cc2F)C(=O)N2CCS(=O)(=O)CC2)cc1 [Compound 21478, N-(4-(5-(difluoromethyl)-1,3,4-oxadiazol-2-yl)-2-fluorobenzyl)-N-(4-methoxyphenyl)thiomorpholine-4-carboxamide 1,1-dioxide]
167 | 60 | COc1ccccc1N(Cc1ccc(-c2nnc(C(F)(F)F)o2)cc1F)C(=O)N1CCS(=O)(=O)CC1 [Compound 21479, N-(2-fluoro-4-(5-(trifluoromethyl)-1,3,4-oxadiazol-2-yl)benzyl)-N-(2-methoxyphenyl)thiomorpholine-4-carboxamide 1,1-dioxide]
204 | 49 | COc1ccccc1N(Cc1ccc(-c2nnc(C(F)F)o2)cc1F)C(=O)N1CCS(=O)(=O)CC1 [Compound 21480, N-(4-(5-(difluoromethyl)-1,3,4-Oxadiazol-2-yl)-2-fluorobenzyl)-N-(2-methoxyphenyl)thiomorpholine-4-carboxamide 1,1-dioxide]
